Data on eight molecules can be found in PubChem BioAssay (NCI).

Test systems include SK-MEL-2 melanoma; KM12 colon; OVCAR-3 ovarian; A498 renal; RXF 393 renal; OVCAR-4 ovarian; HCT-116 colon; SK-MEL-28 melanoma; T-47D breast; HCT-15 colon.
What all share (test): growth of human tumour cells (NCI), 48 h

Several values for one entry are separate records, joined by “and”; a condition that tells them apart may be missing. Identical values can stand only once.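 48-hour exposure; five concentrations; linearly interpolated endpoints. Abbreviation: GI50, concentration required for 50% inhibition of growth. TGI marks complete inhibition of growth.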

In the case of `COc1ccc(/C=N\NC(=O)c2ccc3nc(-c4ccc(Cl)cc4)[nH]c3c2)cc1`, the GI50 in the experiment on SK-MEL-2 melanoma was 3.59 µM; in the experiment on KM12 colon it was 3.03 µM; in the experiment on OVCAR-3 ovarian, 2.28 µM; with A498 renal, 2.45 µM; in the experiment on RXF 393 renal, 1.86 µM; in the experiment on OVCAR-4 ovarian it was 1.79 µM. Also, the GI50 in the experiment on HCT-116 colon is 2.14 µM; in the experiment with SK-MEL-28 melanoma, 1.79 µM; in the experiment with T-47D breast it was 1.94 µM; with HCT-15 colon, 3.24 µM. Besides, the TGI in the experiment on SK-MEL-2 melanoma is 13.8 µM; in the experiment on KM12 colon, 9.58 µM; in the experiment on OVCAR-3 ovarian, 5.14 µM; in the experiment with A498 renal it was 9.87 µM; in the experiment on RXF 393 renal it was 3.8 µM; with OVCAR-4 ovarian it was 3.36 µM. In addition, the TGI in the experiment with HCT-116 colon is 5.12 µM; in the experiment with SK-MEL-28 melanoma, 3.37 µM; in the experiment with T-47D breast, 4.83 µM; with HCT-15 colon it was 12.8 µM.

Regarding `CC#CC#C/C=C1\C=CC2(OC=CC2OC(C)=O)O1` (centres undefined), the GI50 is 90.2 µM and 28.9 µM in the experiment on SK-MEL-2 melanoma; 29.1 µM with OVCAR-4 ovarian; 39.8 µM and 17.3 µM in the experiment with HCT-116 colon; 43.5 µM in the experiment on SK-MEL-28 melanoma; 16.4 µM and 4.78 µM with HCT-15 colon. Besides, the TGI was over 100 µM in the experiment with SK-MEL-2 melanoma; 63.7 µM and 54.8 µM in the experiment with KM12 colon; 74.4 µM with OVCAR-3 ovarian; over 100 µM with A498 renal; 26.1 µM in the experiment on RXF 393 renal; over 100 µM in the experiment with OVCAR-4 ovarian. Moreover, the TGI was > 100 µM and 33.1 µM with HCT-116 colon; over 100 µM with SK-MEL-28 melanoma; 73.9 µM with T-47D breast; 30 µM and 27.8 µM with HCT-15 colon.

Regarding `CCOc1cc2c(=O)oc3c(OC)ccc4ccc(c1OC)c2c43`, the TGI in the experiment on SK-MEL-2 melanoma, in the experiment on KM12 colon, in the experiment with OVCAR-3 ovarian, in the experiment with A498 renal, in the experiment with RXF 393 renal and in the experiment on OVCAR-4 ovarian was over 100 µM in each case. In addition, the TGI in the experiment on HCT-116 colon is 20.4 µM; with SK-MEL-28 melanoma, over 100 µM; in the experiment on T-47D breast, over 100 µM; with HCT-15 colon it was over 100 µM.

Consider `O=C1NC(=O)[C@@H](c2c[nH]c3ccccc23)[C@@H]1c1c[nH]c2ccccc12`, for which the GI50 in the experiment with SK-MEL-2 melanoma, in the experiment on KM12 colon, in the experiment with OVCAR-3 ovarian, with A498 renal, in the experiment with RXF 393 renal and with OVCAR-4 ovarian was over 25 µM in each case. The GI50 in the experiment on HCT-116 colon, in the experiment on SK-MEL-28 melanoma, in the experiment on T-47D breast and in the experiment on HCT-15 colon was over 25 µM each time. Further, the TGI in the experiment with SK-MEL-2 melanoma, in the experiment with KM12 colon, in the experiment with OVCAR-3 ovarian, in the experiment with A498 renal, with RXF 393 renal and with OVCAR-4 ovarian was over 25 µM in each case. In addition, the TGI in the experiment on HCT-116 colon, with SK-MEL-28 melanoma, with T-47D breast and in the experiment with HCT-15 colon was over 25 µM throughout.

With `COc1ccc(C2=N[C@@H](c3ccc(Cl)cc3)[C@@H](c3ccc(Cl)cc3)N2C(=O)N2CCNC(=O)C2)c(OC(C)C)c1`, the GI50 with SK-MEL-2 melanoma is 16.3 µM and 14.6 µM and 15.9 µM; in the experiment on KM12 colon it was 15.9 µM; in the experiment with OVCAR-3 ovarian it was 14 µM and 13.1 µM and 13.7 µM; in the experiment on A498 renal, 12.6 µM and 6.1 µM and 9.23 µM; in the experiment on RXF 393 renal, 12.3 µM and 12.7 µM and 13.9 µM; with OVCAR-4 ovarian it was 12.1 µM and 12.5 µM and 13.7 µM. Moreover, the GI50 with HCT-116 colon is 12.4 µM and 3.82 µM and 3.53 µM; with SK-MEL-28 melanoma, 15.8 µM and 15.3 µM and 16.5 µM; in the experiment on T-47D breast, 14.6 µM and 10.5 µM and 15.2 µM; with HCT-15 colon it was 14.3 µM and 14.5 µM and 14.9 µM. The TGI in the experiment on SK-MEL-2 melanoma is 30.9 µM and 29 µM and 30.6 µM; with KM12 colon it was 32 µM and 30 µM and 30.6 µM; in the experiment with OVCAR-3 ovarian it was 27.2 µM and 26 µM and 26.8 µM; with A498 renal it was 25.6 µM and 21.9 µM and 24.1 µM; with RXF 393 renal, 25.4 µM and 25.9 µM and 27.8 µM; with OVCAR-4 ovarian it was 24.9 µM and 26 µM and 31.5 µM. The TGI in the experiment with HCT-116 colon was 25.4 µM and 18.4 µM and 18.7 µM; in the experiment on SK-MEL-28 melanoma, 30.8 µM and 29.6 µM and 32.2 µM; in the experiment on T-47D breast, 30.4 µM and 27.4 µM and 40.6 µM; in the experiment on HCT-15 colon, 32.3 µM and 28.7 µM and 30.2 µM.

Regarding `COc1cc(C(=O)O/N=C(\N)Cc2cccc3ccccc23)cc(OC)c1OC`, the GI50 with SK-MEL-2 melanoma was 14.9 µM; in the experiment on KM12 colon, 9.12 µM; in the experiment on OVCAR-3 ovarian, 9.62 µM; with A498 renal it was 5.79 µM; in the experiment on RXF 393 renal, 10.7 µM; with OVCAR-4 ovarian, 10.6 µM. In addition, the GI50 in the experiment on HCT-116 colon is 3.13 µM; with SK-MEL-28 melanoma it was 12.4 µM; in the experiment on T-47D breast, 2.95 µM; in the experiment with HCT-15 colon, 6.41 µM. Also, the TGI with SK-MEL-2 melanoma came out at 29.4 µM; in the experiment on KM12 colon, 22.1 µM; in the experiment with OVCAR-3 ovarian, 23.3 µM; with A498 renal, 60.7 µM; in the experiment with RXF 393 renal it was 23.9 µM; in the experiment with OVCAR-4 ovarian it was 26 µM. The TGI in the experiment with HCT-116 colon came to 13 µM; in the experiment with SK-MEL-28 melanoma it was 26.2 µM; in the experiment with T-47D breast, 12.5 µM; in the experiment with HCT-15 colon, 21.4 µM.

Consider `O=C1CC(c2ccsc2)c2snc(-c3ccc(Cl)cc3)c2N1` (centres undefined), for which the GI50 is 3.93 µM with SK-MEL-2 melanoma; 0.385 µM in the experiment with KM12 colon; 0.694 µM with OVCAR-3 ovarian; 1.09 µM in the experiment with A498 renal; 3.49 µM in the experiment with RXF 393 renal; 5.6 µM in the experiment on OVCAR-4 ovarian. Further, the GI50 with HCT-116 colon was 0.515 µM; in the experiment on SK-MEL-28 melanoma, 3.11 µM; in the experiment on T-47D breast it was 0.537 µM; in the experiment with HCT-15 colon it was 0.489 µM. Besides, the TGI in the experiment with SK-MEL-2 melanoma is over 100 µM; in the experiment with KM12 colon, over 100 µM; in the experiment with OVCAR-3 ovarian, 4.78 µM; in the experiment with A498 renal, 7.94 µM; with RXF 393 renal, 50.8 µM; in the experiment on OVCAR-4 ovarian, over 100 µM. For the same molecule, the TGI with HCT-116 colon, in the experiment on SK-MEL-28 melanoma, in the experiment with T-47D breast and in the experiment with HCT-15 colon was over 100 µM throughout.

In the case of `O=C1C(Br)=C(Br)C(=O)c2ccccc21`, the TGI in the experiment on SK-MEL-2 melanoma is 36.2 µM and 29 µM; in the experiment with KM12 colon, 36.9 µM and 33.3 µM; in the experiment with OVCAR-3 ovarian, 32.4 µM and 27.7 µM; in the experiment on A498 renal, > 100 µM and 27.1 µM; with RXF 393 renal it was 29.9 µM and 15.6 µM; in the experiment with OVCAR-4 ovarian, 31.4 µM and 33.3 µM. In addition, the TGI is 31.8 µM and 28.1 µM in the experiment with HCT-116 colon; 32.8 µM and 15.6 µM in the experiment with SK-MEL-28 melanoma; 12.5 µM in the experiment on T-47D breast; 31.4 µM and 45.1 µM in the experiment on HCT-15 colon. For the same molecule, the GI50 in the experiment with OVCAR-3 ovarian is 17.9 µM and 8.34 µM; with A498 renal, 48.5 µM and 13.4 µM; with RXF 393 renal, 16.2 µM and 5.85 µM; with SK-MEL-28 melanoma, 18.4 µM and 4.98 µM.
